Laboratory results as given in patent publication US20130274174A1, “THERAPEUTIC COMBINATION OF DAPTOMYCIN AND PROTEIN SYNTHESIS INHIBITOR ANTIBIOTIC, AND METHODS OF USE” (priority 2011, published 2013).
Values after ≈ are worked out from the molar mass of the structure shown. Where two headings read alike, the source gives them in different places.

Assays:
S. aureus MW2 (NRS123) = experiment: microbe, parasite or virus in culture; type: cell-based, Staphylococcus aureus; conditions: Staphylococcus aureus
Protocol: S. aureus strains MW2 (NARSA collection clinical MRSA isolate, NRS123) and ATCC 33591 (MRSA strain from the American Type Culture Collection) were cultured on Mueller-Hinton II cation adjusted (MHA) medium in 90×90 mm square petri dishes. MHA containing ¼ of the MIC value of TR-700, TR-705, LZD, TIA, CLI, TET, or VAN, TMP/SMX throughout the plate and a continuous linear gradient of DAP across the plate was used to passage MW2. ATCC 33591 was passaged with ¼ of the MIC of a subset of these drugs (TR-700, TMP/SMX, and VAN). A DAP-only control passage group was included for both strains. DAP gradients were created by pouring two layers of media as previously described (Bryson, V., et al. 1952. Microbial selection. Science 116:45-51; Locke, J. B., et al., 2009. Antimicrob. Agents Chemother. 53:5265-5274). Following each passage the leading edge of growth (i.e., most resistant cells) was resuspended in phosphate buffered saline (PBS) to an absorbance of 0.30 OD600 and a 100 μl aliquot containing ˜3.0×10^7 CFU (colony-forming units) was spread on to the proceeding passage plate. The starting maximal DAP concentration was 2 μg/ml and was increased in two-fold increments when the leading edge of growth surpassed the half way point on the plate. A glycerol stock was made from the total cell population for each culture condition for each passage. Thirty serial passages were completed for each treatment group.

[1] = system: S. aureus and enterococci; conditions: Entenza et al. 2010; cited from earlier work

In the case of `C=C[C@]1(C)C[C@@H](OC(=O)CSCCN(CC)CC)[C@]2(C)[C@H](C)CC[C@]3(CCC(=O)[C@H]32)[C@@H](C)[C@@H]1O` [TIA, tiamulin], the MIC (S. aureus MW2 (NRS123); NRS123, passage 0, NRS123 WT) is reported as 0.5 µg/mL (≈ 1.01 µM), the MIC (S. aureus MW2 (NRS123); NRS123, passage 5, selection group DAP) is reported as 0.5 µg/mL (≈ 1.01 µM) and the MIC (S. aureus MW2 (NRS123); NRS123, passage 5, selection group DAP + CLI) is reported as 1 µg/mL. For the same compound, the MIC (S. aureus MW2 (NRS123); NRS123, passage 5, selection group DAP + LZD) was 1 µg/mL, the MIC (S. aureus MW2 (NRS123); NRS123, passage 5, selection group DAP + TET) was 0.5 µg/mL and the MIC (S. aureus MW2 (NRS123); NRS123, passage 5, selection group DAP + TIA) was 0.5 µg/mL. The MIC (S. aureus MW2 (NRS123); NRS123, passage 5, selection group DAP + TMP/SMX) was 0.5 µg/mL, the MIC (S. aureus MW2 (NRS123); NRS123, passage 5, selection group DAP + TR-700) was 1 µg/mL and the MIC (S. aureus MW2 (NRS123); NRS123, passage 5, selection group DAP + TR-705) was 1 µg/mL. For the same compound, the MIC (S. aureus MW2 (NRS123); NRS123, passage 5, selection group DAP + VAN) was 0.5 µg/mL, the MIC (S. aureus MW2 (NRS123); NRS123, passage 10, selection group DAP) was 0.5 µg/mL (≈ 1.01 µM) and the MIC (S. aureus MW2 (NRS123); NRS123, passage 10, selection group DAP + CLI) was 1 µg/mL. It also gave an MIC (S. aureus MW2 (NRS123); NRS123, passage 10, selection group DAP + LZD) of 1 µg/mL, an MIC (S. aureus MW2 (NRS123); NRS123, passage 10, selection group DAP + TET) of 0.5 µg/mL and an MIC (S. aureus MW2 (NRS123); NRS123, passage 10, selection group DAP + TIA) of 0.5 µg/mL. It also gave an MIC (S. aureus MW2 (NRS123); NRS123, passage 10, selection group DAP + TMP/SMX) of 1 µg/mL, an MIC (S. aureus MW2 (NRS123); NRS123, passage 10, selection group DAP + TR-700) of 1 µg/mL and an MIC (S. aureus MW2 (NRS123); NRS123, passage 10, selection group DAP + TR-705) of 0.5 µg/mL. The MIC (S. aureus MW2 (NRS123); NRS123, passage 10, selection group DAP + VAN) was 0.5 µg/mL, the MIC (S. aureus MW2 (NRS123); NRS123, passage 15, selection group DAP) was 0.5 µg/mL (≈ 1.01 µM) and the MIC (S. aureus MW2 (NRS123); NRS123, passage 15, selection group DAP + CLI) was 0.5 µg/mL. For the same compound, the MIC (S. aureus MW2 (NRS123); NRS123, passage 15, selection group DAP + LZD) was 1 µg/mL, the MIC (S. aureus MW2 (NRS123); NRS123, passage 15, selection group DAP + TET) was 0.25 µg/mL and the MIC (S. aureus MW2 (NRS123); NRS123, passage 15, selection group DAP + TIA) was 0.5 µg/mL. For the same compound, the MIC (S. aureus MW2 (NRS123); NRS123, passage 15, selection group DAP + TMP/SMX) was 1 µg/mL, the MIC (S. aureus MW2 (NRS123); NRS123, passage 15, selection group DAP + TR-700) was 1 µg/mL and the MIC (S. aureus MW2 (NRS123); NRS123, passage 15, selection group DAP + TR-705) was 0.5 µg/mL. The MIC (S. aureus MW2 (NRS123); NRS123, passage 15, selection group DAP + VAN) was 0.5 µg/mL, the MIC (S. aureus MW2 (NRS123); NRS123, passage 20, selection group DAP) was 0.5 µg/mL (≈ 1.01 µM) and the MIC (S. aureus MW2 (NRS123); NRS123, passage 20, selection group DAP + CLI) was 0.5 µg/mL. For the same compound, the MIC (S. aureus MW2 (NRS123); NRS123, passage 20, selection group DAP + LZD) was 1 µg/mL, the MIC (S. aureus MW2 (NRS123); NRS123, passage 20, selection group DAP + TET) was 0.25 µg/mL and the MIC (S. aureus MW2 (NRS123); NRS123, passage 20, selection group DAP + TIA) was 0.5 µg/mL. The MIC (S. aureus MW2 (NRS123); NRS123, passage 20, selection group DAP + TMP/SMX) was 0.5 µg/mL, the MIC (S. aureus MW2 (NRS123); NRS123, passage 20, selection group DAP + TR-700) was 1 µg/mL and the MIC (S. aureus MW2 (NRS123); NRS123, passage 20, selection group DAP + TR-705) was 0.5 µg/mL. The MIC (S. aureus MW2 (NRS123); NRS123, passage 20, selection group DAP + VAN) was 0.5 µg/mL, the MIC (S. aureus MW2 (NRS123); NRS123, passage 25, selection group DAP) was 0.25 µg/mL (≈ 0.506 µM) and the MIC (S. aureus MW2 (NRS123); NRS123, passage 25, selection group DAP + CLI) was 0.5 µg/mL. The MIC (S. aureus MW2 (NRS123); NRS123, passage 25, selection group DAP + LZD) was 0.25 µg/mL, the MIC (S. aureus MW2 (NRS123); NRS123, passage 25, selection group DAP + TET) was 0.25 µg/mL and the MIC (S. aureus MW2 (NRS123); NRS123, passage 25, selection group DAP + TIA) was 0.5 µg/mL. For the same compound, the MIC (S. aureus MW2 (NRS123); NRS123, passage 25, selection group DAP + TMP/SMX) was 0.5 µg/mL, the MIC (S. aureus MW2 (NRS123); NRS123, passage 25, selection group DAP + TR-700) was 1 µg/mL and the MIC (S. aureus MW2 (NRS123); NRS123, passage 25, selection group DAP + TR-705) was 0.5 µg/mL. For the same compound, the MIC (S. aureus MW2 (NRS123); NRS123, passage 25, selection group DAP + VAN) was 0.5 µg/mL, the MIC (S. aureus MW2 (NRS123); NRS123, passage 30, selection group DAP) was 0.25 µg/mL (≈ 0.506 µM) and the MIC (S. aureus MW2 (NRS123); NRS123, passage 30, selection group DAP + CLI) was 0.25 µg/mL. It also gave an MIC (S. aureus MW2 (NRS123); NRS123, passage 30, selection group DAP + LZD) of 0.5 µg/mL, an MIC (S. aureus MW2 (NRS123); NRS123, passage 30, selection group DAP + TET) of 0.25 µg/mL and an MIC (S. aureus MW2 (NRS123); NRS123, passage 30, selection group DAP + TIA) of 0.5 µg/mL. The MIC (S. aureus MW2 (NRS123); NRS123, passage 30, selection group DAP + TMP/SMX) was 0.5 µg/mL, the MIC (S. aureus MW2 (NRS123); NRS123, passage 30, selection group DAP + TR-700) was 0.5 µg/mL and the MIC (S. aureus MW2 (NRS123); NRS123, passage 30, selection group DAP + TR-705) was 0.5 µg/mL. The MIC (S. aureus MW2 (NRS123); NRS123, passage 30, selection group DAP + VAN) was 0.25 µg/mL and the MIC (S. aureus MW2 (NRS123); NRS123, read-out: DAP MIC by the end of the experiment (selection of DAP^ns strains), MW2, passaged with DAP alone or with co-selecting agent at ¼ MIC, CLSI breakpoint) was > 1 µg/mL.

In the case of `CC1(C)S[C@@H]2[C@H](NC(=O)[C@H](N)c3ccccc3)C(=O)N2[C@H]1C(=O)O` [ampicillin], the “prevention of the emergence of daptomycin resistance” value [1] is listed as “prevented or greatly delayed selection of daptomycin-nonsusceptible mutants”.

In the case of Gentamicin, the “increase of MIC in parallel to the increase in the daptomycin MIC” value [1] is given as “two-fold” and the “prevention of the emergence of daptomycin resistance” value [1] is given as “unable to prevent the emergence of daptomycin resistance”.
